In ChEMBL document CHEMBL5143560, “Rational drug design to explore the structure-activity relationship (SAR) of TRK inhibitors with 2,4-diaminopyrimidine scaffold” (Eur J Med Chem, 2022):

Experiments:
[1] = Tmax in Sprague-Dawley rat at 3 mg/kg, po by LC-MS/MS analysis; assay type: ADME, organism-based; conditions: in vivo
[2] = Volume of distribution at steady state in Sprague-Dawley rat at 1 mg/kg, iv by LC-MS/MS analysis; assay type: ADME, organism-based; conditions: in vivo, read-out: Vdss
[3] = Stability of the compound in human plasma assessed as remaining compound measure after 30 mins by LC-MS/MS analysis; assay type: ADME, cell-free; conditions: read-out: Stability
[4] = Metabolic stability in human liver microsomes assessed as parent compound remaining measured at 60 min in presence of NADPH by LC-MS/MS analysis; assay type: ADME, Microsome; conditions: read-out: Stability
[5] = AUClast in Sprague-Dawley rat at 3 mg/kg, po by LC-MS/MS analysis; assay type: ADME, organism-based; design: time 0 - last, dose 3 mg/kg, route po; conditions: in vivo
[6] = AUClast in Sprague-Dawley rat at 1 mg/kg, iv by LC-MS/MS analysis; assay type: ADME, organism-based; design: time 0 - last, dose 1 mg/kg, route iv; conditions: in vivo
[7] = Cmax in Sprague-Dawley rat at 3 mg/kg, po by LC-MS/MS analysis; assay type: ADME, organism-based; design: dose 3 mg/kg, route po; conditions: in vivo
[8] = AUCinfinity in Sprague-Dawley rat at 1 mg/kg, iv by LC-MS/MS analysis; assay type: ADME, organism-based; design: time infinity, dose 1 mg/kg, route iv; conditions: in vivo
[9] = Metabolic stability in human liver microsomes assessed as parent compound remaining measured at 60 min in absence of NADPH by LC-MS/MS analysis; assay type: ADME, Microsome; conditions: read-out: Stability
[10] = Stability of the compound in human plasma assessed as remaining compound measure after 10 mins by LC-MS/MS analysis; assay type: ADME, cell-free
[11] = Half life in Sprague-Dawley rat at 1 mg/kg, iv by LC-MS/MS analysis; assay type: ADME, organism-based; conditions: in vivo
[12] = Stability of the compound in human plasma assessed as remaining compound measure after 120 mins by LC-MS/MS analysis; assay type: ADME, cell-free; conditions: read-out: Stability
[13] = Metabolic stability in human liver microsomes assessed as half life in presence of NADPH by LC-MS/MS analysis; assay type: ADME, Microsome
[14] = MRT in Sprague-Dawley rat at 3 mg/kg, po by LC-MS/MS analysis; assay type: ADME, organism-based; conditions: in vivo
[15] = Oral bioavailability in Sprague-Dawley rat at 3 mg/kg by LC-MS/MS analysis; assay type: ADME, organism-based; conditions: in vivo
[16] = MRT in Sprague-Dawley rat at 1 mg/kg, iv by LC-MS/MS analysis; assay type: ADME, organism-based; conditions: in vivo
[17] = Metabolic stability in human liver assessed as intrinsic clearance in presence of NADPH by LC-MS/MS analysis; assay type: ADME, tissue-based; conditions: read-out: CLH
[18] = Stability of the compound in human plasma assessed as remaining compound measure after 60 mins by LC-MS/MS analysis; assay type: ADME, cell-free; conditions: read-out: Stability
[19] = Stability of the compound in human plasma assessed as half life by LC-MS/MS analysis; assay type: ADME, cell-free
[20] = Metabolic stability in human microsomes assessed as intrinsic clearance in presence of NADPH by LC-MS/MS analysis; assay type: ADME, Microsome

Tmax [1]: 4 h
Vd [2]: 31 L/kg
remaining at 0.5 h [3]: 90.1%
remaining at 1 h [4]: 90.2%
AUC(0-t) [5]: 188 ng·h/mL
AUC(0-t) [6]: 325 ng·h/mL
Cmax [7]: 33.6 ng/mL
AUC [8]: 386 ng·h/mL
remaining at 1 h [9]: 96%
Stability [10]: 84%
half-life [11]: 3.4 h
remaining at 2 h [12]: 103%
half-life [13]: > 2.42 h
MRT [14]: 3.49 h
bioavailability [15]: 17.4%
MRT [16]: 3.96 h
CLint scaled [17]: < 8.6 mL/min/kg
remaining at 1 h [18]: 90.5%
half-life [19]: > 4.82 h
CLint scaled [20]: < 9.6 mL/min/kg
Compound: O=C(N[C@@H]1CCCNC1)c1cccc(Nc2ncc(Cl)c(NCc3cccc(F)c3)n2)c1
